The values below come from ChEMBL document CHEMBL5346896, “Development of indolealkylamine derivatives as potential multi-target agents for COVID-19 treatment” (Eur J Med Chem, 2023).

Series [1] relates to Vero. Description: Cytotoxicity against African green monkey Vero cells infected with SARS-CoV-2 assessed as effect on cell viability. The format is toxicity, cell-based. To be noted: chlorocebus sabaeus.
Series [2] deals with Spike glycoprotein/Angiotensin-converting enzyme 2 (Severe acute respiratory syndrome coronavirus 2) (UniProt Q9BYF1+P0DTC2). Description: Inhibition of d2-labelled SARS-CoV-2 spike protein RBD-terbium labelled SNAP tagged human ACE2 interaction transfected in HEK293 cells at 100 uM preincubated with cells for 1 hrs followed by RBD-d2 addition and measured after 2 hrs by TR-FRET assay relative to control. The format is cell-based. Conditions: time 3.0 hrs. (TR-FRET usually uses a lanthanide donor and a delayed reading to cut background.)

For series [3], the target named is T1, Melatonin receptor type 1B (Homo sapiens, UniProt P49286).
T1 sequence (P49286 whole entry): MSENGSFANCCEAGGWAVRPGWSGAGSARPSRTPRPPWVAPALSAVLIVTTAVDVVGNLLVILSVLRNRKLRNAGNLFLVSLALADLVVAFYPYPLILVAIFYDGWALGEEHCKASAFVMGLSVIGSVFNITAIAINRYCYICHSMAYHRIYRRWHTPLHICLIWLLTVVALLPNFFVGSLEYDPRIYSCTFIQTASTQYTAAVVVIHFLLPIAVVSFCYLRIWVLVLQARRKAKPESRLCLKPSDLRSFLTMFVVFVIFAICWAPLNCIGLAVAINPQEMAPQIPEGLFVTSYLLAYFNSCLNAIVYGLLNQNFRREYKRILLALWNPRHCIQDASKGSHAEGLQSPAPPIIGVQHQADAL
Put plainly: Displacement of 2-[125I]iodomelatonin from human melatonin MT2 receptor stably expressed in human HEK293 cell membrane assessed as inhibition constant incubated for 120 mins by rapid filtration based competition binding assay. The class given is cell membranes.

The test system of series [4] is HEK-293T. Put plainly: Cytotoxicity against HEK293T cells expressing human ACE2 assessed as effect on cell viability. The class given is toxicity, cell-based.
In series [5] the target is Angiotensin-converting enzyme 2 (Homo sapiens) (UniProt Q9BYF1). Description: Inhibition of recombinant ACE2 (unknown origin) exopeptidase activity using fluorogenic substrate at 0.5 to 10 uM incubated for 1 hrs by fluorescence based analysis. Conditions: dose 0.5-10 µM.
Sequence of Angiotensin-converting enzyme 2 (Homo sapiens) (Q9BYF1 18-805 limits assumed): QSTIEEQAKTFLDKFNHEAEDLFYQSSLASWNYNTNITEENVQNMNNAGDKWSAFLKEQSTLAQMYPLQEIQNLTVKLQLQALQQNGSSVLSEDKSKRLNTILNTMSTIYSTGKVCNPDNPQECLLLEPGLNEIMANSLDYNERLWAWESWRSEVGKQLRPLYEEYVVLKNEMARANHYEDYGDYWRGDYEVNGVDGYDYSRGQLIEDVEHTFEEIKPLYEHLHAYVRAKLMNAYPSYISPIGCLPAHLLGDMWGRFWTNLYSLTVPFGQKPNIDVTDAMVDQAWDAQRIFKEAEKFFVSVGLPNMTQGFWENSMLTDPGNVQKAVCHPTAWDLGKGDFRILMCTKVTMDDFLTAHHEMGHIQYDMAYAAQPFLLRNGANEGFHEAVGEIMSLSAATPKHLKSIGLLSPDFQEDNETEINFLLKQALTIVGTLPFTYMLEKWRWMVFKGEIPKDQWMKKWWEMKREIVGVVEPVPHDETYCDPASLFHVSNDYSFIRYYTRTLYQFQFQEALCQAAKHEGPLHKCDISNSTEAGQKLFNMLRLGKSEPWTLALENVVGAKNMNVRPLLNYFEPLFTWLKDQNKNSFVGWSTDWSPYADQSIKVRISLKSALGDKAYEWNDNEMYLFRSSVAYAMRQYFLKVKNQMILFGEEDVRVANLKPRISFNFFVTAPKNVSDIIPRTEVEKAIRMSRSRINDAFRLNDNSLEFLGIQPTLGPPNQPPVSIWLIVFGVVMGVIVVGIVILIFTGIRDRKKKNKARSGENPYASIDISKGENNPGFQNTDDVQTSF
Series [6] is described as follows: Inhibition of CAMKII (unknown origin) using syntide-2 as substrate assessed as maximum efficacy incubated for 30 mins by spectrophotometric analysis. Details: species or system Homo sapiens.
In series [7] the test system is SARS-CoV-2. Description: Antiviral activity against SARS-CoV-2 infected in African green monkey Vero cells assessed as inhibition of viral replication at 10 uM preincubated with cells for 1 hrs followed by viral infection by FISH-flow quantification analysis. The class given is functional, organism-based. Conditions: Severe acute respiratory syndrome coronavirus 2.

Series [8] has as its target T2, Melatonin receptor type 1A (Homo sapiens, UniProt P48039). Put plainly: Displacement of 2-[125I]iodomelatonin from human melatonin MT1 receptor stably expressed in HEK293 cell membrane assessed as inhibition constant incubated for 120 mins by rapid filtration based competition binding assay. The format is cell membranes.
The test system of series [9] is SARS-CoV-2. Put plainly: Antiviral activity against SARS-CoV-2 infected in African green monkey Vero cells assessed as inhibition of viral replication at 1 uM preincubated with cells for 1 hrs followed by viral infection by FISH-flow quantification analysis. Conditions: Severe acute respiratory syndrome coronavirus 2. The class given is functional, organism-based.

The species entered for series [10] is Homo sapiens. Description: Inhibition of CAMKII (unknown origin) using syntide-2 as substrate assessed as maximum efficacy at 50 uM incubated for 30 mins by spectrophotometric analysis relative to control.
Series [11] has as its system Vero. Description: Cytotoxicity against African green monkey Vero cells assessed as effect on cell viability. To be noted: chlorocebus sabaeus. The format is toxicity, cell-based.
The target of series [12] is Replicase polyprotein 1ab (Severe acute respiratory syndrome coronavirus 2) (UniProt P0DTD1). Description: Inhibition of SARS-CoV-2 main protease transfected in HEK293T cells co-transfected with gain of signal Src and Tat-Luc reporter construct at 1 uM measured 48 hrs post transfection by luciferase based analysis relative to control. The class given is cell-based.
Series [13] is filed under the species Homo sapiens. Put plainly: Selectivity ratio of pKi for displacement of 2-[125I]iodomelatonin from human melatonin MT1 receptor stably expressed in human HEK293 cell membrane to pKi for displacement of 2-[125I]iodomelatonin from human melatonin MT2 receptor stably expressed in human HEK293 cell membrane.
For series [14], the target named is T2, Melatonin receptor type 1A. Description: Partial agonist activity at human melatonin MT1 receptor expressed in HEK293 cells co-transfected with Galphai9 chimera construct assessed as stimulation of inositol phosphate production by HTRF based assay. The class given is functional, cell-based.
Series [15] deals with T1, Melatonin receptor type 1B. Description: Partial agonist activity at human melatonin MT2 receptor expressed in HEK293 cells co-transfected with Galphai9 chimera construct assessed as stimulation of inositol phosphate production by HTRF based assay. The format is functional, cell-based.
Series [16] deals with T2, Melatonin receptor type 1A. Put plainly: Inverse agonist activity at human melatonin MT1 receptor expressed in HEK293 cells co-transfected with Galphai9 chimera construct assessed as stimulation of inositol phosphate production by HTRF based assay. The class given is functional, cell-based.
Series [17] concerns the target Angiotensin-converting enzyme 2 (Homo sapiens) (UniProt Q9BYF1). Description: Inhibition of recombinant ACE2 (unknown origin) exopeptidase activity using fluorogenic substrate at 0.5 to 10 uM incubated for 1 hrs by fluorescence based analysis relative to control. Conditions: dose 0.5-10 µM.
In series [18] the test system is SARS-CoV-2. Description: Antiviral activity against SARS-CoV-2 assessed as inhibition of viral replication. The class given is functional, organism-based. To be noted: Severe acute respiratory syndrome coronavirus 2.

Structures are written as SMILES. The source made the active and inactive calls. No cut-off for these calls is given here. Some results are limits rather than exact numbers.

T2 sequence (P48039 whole entry): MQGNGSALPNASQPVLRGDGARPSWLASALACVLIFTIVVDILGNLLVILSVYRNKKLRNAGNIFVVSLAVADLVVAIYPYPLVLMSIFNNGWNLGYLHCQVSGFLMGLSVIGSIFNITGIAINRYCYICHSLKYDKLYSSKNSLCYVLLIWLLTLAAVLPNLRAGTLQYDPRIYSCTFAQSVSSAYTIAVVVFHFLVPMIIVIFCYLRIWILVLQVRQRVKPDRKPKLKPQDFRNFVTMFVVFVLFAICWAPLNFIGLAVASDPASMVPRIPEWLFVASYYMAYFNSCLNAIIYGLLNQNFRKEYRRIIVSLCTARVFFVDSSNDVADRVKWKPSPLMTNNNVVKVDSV

Consider `COc1ccc2[nH]c(C(O)c3ccc(Cl)cc3)c(CCNC(C)=O)c2c1` (centres undefined), for which the Activity result in series [1], in series [4] and in series [11] was “Non-Toxic” in each case. Besides, the inhibition is 35% in series [2] and less than 20% in series [12]. The inhibitory constant (Ki) in [3] is 0.0513 µM; in series [8], 0.513 µM. Also, in [5], the inhibition entry is “inactive”. For the same compound, in series [6], the EC50 was roughly 25 µM. The outcome in [7] and in series [9] was inactive. Moreover, the Imax in [10] came to 40%.
Consider `CC(=O)NCCc1c(C(O)c2ccccc2)[nH]c2ccccc12` (centres undefined), for which the Ki in series [3] is 1 µM; in [8], 2.75 µM. In addition, the Ratio pKi in series [13] was 0.93.
With `COC(=O)NCCc1c(C(O)c2ccc(F)cc2)[nH]c2ccc(OC)cc12` (centres undefined), the Ki in series [3] is 0.741 µM; in [8] it was 1.82 µM. For the same compound, the Ratio pKi in [13] came to 0.94. The concentration giving a half-maximal response (EC50) is 3.16 µM in series [14] and 0.257 µM in [15]. In addition, the inhibition entry in [5] is “inactive”.
Regarding `COc1ccc2[nH]c(C(O)c3ccccc3)c(CCNC(C)=O)c2c1` (centres undefined), the inhibition in [2] stood at 20%. Further, the figures for the Ki in series [3] and in [8] were 0.977 µM and 1.26 µM, respectively. Further, the Ratio pKi in [13] was found to be 0.98. For the same compound, the figures for the concentration giving a half-maximal response (EC50) in series [14] and in series [15] were 0.525 µM and 0.224 µM, respectively. Moreover, the inhibition result in series [5] is “inactive”.
Consider `COc1ccc(C(O)c2[nH]c3ccc(OC)cc3c2CCNC(C)=O)c(F)c1` (centres undefined), for which the values for the Ki in [3] and in [8] were 0.295 µM and 6.76 µM, respectively. The Ratio pKi in [13] worked out at 0.79. Moreover, in series [5], the inhibition result was “inactive”.
On to `O=C(NCCc1c(C(O)c2ccccc2)[nH]c2ccccc12)C(F)(F)F` (centres undefined), for which the results for the inhibitory constant (Ki) in series [3] and in [8] were 1.15 µM and 2.51 µM, respectively. Moreover, in series [13], the Ratio pKi is 0.94. For the same compound, the EC50 in [16] is less than 10 µM.
With `COC(=O)NCCc1c(C(O)c2ccc(OC)cc2)[nH]c2ccc(OC)cc12` (centres undefined), the inhibition in series [2] was found to be 20%. Also, the inhibitory constant (Ki) in series [3] was 66.1 µM; in series [8], 110 µM. In addition, the Ratio pKi in series [13] worked out at 0.94. Also, the inhibition result in series [5] was “inactive”.
Compound `COc1ccc2[nH]c(C(O)c3ccc(F)cc3)c(CCNC(C)=O)c2c1` (centres undefined) gave an inhibition in series [2] of 20%. For the same compound, the Ki was 4.57 µM in [3] and 5.37 µM in series [8]. Further, in series [13], the Ratio pKi is 0.98. The figures for the EC50 in series [14], in [15] and in [6] were less than 10 µM, less than 10 µM and roughly 25 µM, respectively. Moreover, the inhibition result in series [5] is “inactive”. In series [10], the Imax stood at 40%.
In the case of `COc1ccc(C(O)c2[nH]c3ccc(OC)cc3c2CCNC(C)=O)cc1` (centres undefined), the inhibition in series [2] was found to be 20%. Moreover, the figures for the Ki in series [3] and in series [8] were 0.427 µM and 7.59 µM, respectively. Besides, the Ratio pKi in series [13] was 0.8. Also, the inhibition entry in [5] was “inactive”.
Take `CC(=O)NCC(=O)N[C@@H](CC(=O)O)C(=O)N[C@@H](Cc1ccc(O)cc1)C(=O)N[C@@H](CO)C(=O)N[C@@H](Cc1cnc[nH]1)C(=O)N[C@H]1CSSC[C@@H](C(=O)N[C@H](C(=O)N[C@@H](Cc2ccc(O)cc2)C(=O)N2CCC[C@H]2C(=O)N[C@@H](CC(=O)O)C(=O)N2CCC[C@H]2C(=O)N[C@@H](CCC(=O)O)C(=O)NCC(=O)NCC(=O)NCC(N)=O)[C@@H](C)O)NC(=O)[C@H](CCCCN)NC(=O)[C@H](Cc2c[nH]c3ccccc23)NC(=O)[C@H](Cc2c[nH]c3ccccc23)NC(=O)[C@@H]2CCCN2C(=O)[C@H](Cc2ccc(O)cc2)NC(=O)[C@H](Cc2ccc(O)cc2)NC(=O)[C@H](CCCNC(=N)N)NC(=O)[C@H](CC(C)C)NC(=O)[C@@H]2CCCN2C(=O)[C@H](CO)NC1=O`: the inhibition in [17] came out at 100%.
For the compound `COc1ccc2cccc(CCNC(C)=O)c2c1`, in [10], the Imax was 20%.
Turning to `COC(=O)NCCc1c(C(O)c2ccc(Cl)cc2)[nH]c2ccccc12` (centres undefined), the inhibitory constant (Ki) in [3] is 5.25 µM; in [8], 25.1 µM. Also, in [13], the Ratio pKi came to 0.87.
`COC(=O)NCCc1c(C(O)c2ccc(OC)cc2F)[nH]c2ccc(OC)cc12` (centres undefined): the Ki was 4.9 µM in series [3] and 2.04 µM in series [8]. The Ratio pKi in [13] stood at 1.07. Moreover, the 50% effective concentration (EC50) in series [14] and in series [15] was less than 10 µM in each case. In series [5], the inhibition entry is “inactive”.
Take `COc1ccc2[nH]cc(CCNC(C)=O)c2c1`: the Imax in series [10] is 20%.
Turning to `CC(=O)NCCc1c(C(O)c2ccc(Cl)cc2)[nH]c2ccccc12` (centres undefined), the inhibition in series [2] worked out at 20%. The Ki in [3] is 4.37 µM; in series [8] it was 4.47 µM. For the same compound, the Ratio pKi in series [13] came out at 0.99. In addition, in [5], the inhibition entry was “inactive”.
On to `COC(=O)NCCc1c(C(O)c2ccccc2)[nH]c2ccc(OC)cc12` (centres undefined), for which the Activity result in [1], in [4] and in series [11] was “Non-Toxic” throughout. In addition, the inhibition in series [2] was 20%; in series [12] it was greater than 70%. Besides, the Ki was 0.191 µM in [3] and 0.891 µM in series [8]. Also, the EC50 in [14] is less than 10 µM; in series [15], less than 10 µM; in [6] it was roughly 25 µM. Further, in [5], the inhibition entry is “inactive”. Besides, the result in [7] was Active. The outcome in series [9] was inactive. Besides, the Imax in series [10] came out at 40%.
Consider `CN1CC(=O)NC(CCc2c(C(O)c3ccccc3N)[nH]c3ccccc23)C1=O` (centres undefined), for which the Ki in series [3] is 17 µM; in [8], 41.7 µM. In addition, in [13], the Ratio pKi came to 0.92.
On to `O=C(Oc1cncc(Cl)c1)c1cccc2[nH]ccc12`, for which, in series [18], the IC50 stood at 2.8 µM.
Take `COC(=O)NCCc1c(C(O)c2ccccc2)[nH]c2ccccc12` (centres undefined): the Ki in series [3] was 2 µM; in [8], 22.9 µM. Moreover, the Ratio pKi in series [13] is 0.81.
Consider `CCC(=O)NCC[C@@H]1CCc2ccc3c(c21)CCO3`, for which the Imax in series [10] worked out at 20%.

The inhibition is how much of the control response was suppressed. In general, Ki refers to a measure of affinity in units of concentration, obtained from inhibition or displacement. What is called EC50 is the concentration at which the effect is half-maximal. Usually IC50 stands for the concentration that inhibits the measured activity by half.
